We go through six compounds from paper PMC5297809, “Design, Synthesis and Antifungal Activity Evaluation of New Thiazolin-4-ones as Potential Lanosterol 14α-Demethylase Inhibitors” (International Journal of Molecular Sciences, 2017).

≈ marks a conversion by molar mass, not a printed value.

Data set [1] relates to Candida albicans ATCC 18804. Kind of data set: broth microdilution MIC/MFC. In kind it is cell-based. As to conditions: for MFC: ATCC18804, C. albicans ATCC 18804, read-out: MFC; for MIC: ATCC18804, C. albicans ATCC 18804, read-out: MIC.
In another data set the test system is Candida krusei ATCC 6258. Kind of data set: broth microdilution MIC/MFC. In kind it is cell-based. Particulars: Pichia kudriavzevii, ATCC6258, C. krusei ATCC 6258; for MFC: read-out: MFC; for MIC: read-out: MIC. In general terms: Dilution methods test growth across graded concentrations, often in twofold steps.
Data set [2] concerns Candida albicans ATCC 10231. Kind of data set: broth microdilution MIC/MFC. In kind it is cell-based. Particulars: for MFC: ATCC10231, C. albicans ATCC 10231, read-out: MFC; for MIC: ATCC10231, C. albicans ATCC 10231, read-out: MIC.
Another data set has as its system four strains of Candida. Kind of data set: broth microdilution MIC/MFC, summary over the four strains. Format: cell-based. Particulars: for MFC / MIC: summary over two C. albicans, one C. krusei and one C. parapsilosis strain; for fold more active than fluconazole: anti-Candida activity.
The test system of data set [3] is Candida parapsilosis ATCC 22019. Kind of data set: broth microdilution MIC/MFC. Format: cell-based. As to conditions: Lodderomyces parapsilosis, ATCC22019, C. parapsilosis ATCC 22019; for MFC: read-out: MFC; for MIC: read-out: MIC.
For data set [4], the system named is Candida albicans ATCC 10231. As to the kind of experiment: cup-plate agar diffusion method, inhibition zone diameters. Format: cell-based. As to conditions: ATCC10231, C. albicans ATCC 10231, 1 mg/mL in DMSO, 20 µg/well, mean of three ± SD, read-out: inhibition zone diameters. On the technique in general: A growth-free zone around the sample is the usual read-out of agar diffusion tests.

A short description of data set [5]: lipophilicity by RP-TLC with PCA. Format: physicochemical. More on the design: key to P1 / P2: PCA scores of compounds computed from Rf data. As to conditions: for RM0: RP-TLC C18, water-i-propanol 45-65%, intercept, RM extrapolated to 0% organic modifier (lipophilicity); for b: RP-TLC regression slope (specific hydrophobic surface area); for P1: score of first principal component of Rf data, low P1 = highly lipophilic; for P2: score of second principal component of Rf data. The protocol:
The lipophilic character of twenty thiazolin-4-one derivatives was assessed with the help of the principal component analysis (PCA) based on the reversed-phase thin-layer chromatography (RP-TLC) data.
The chromatographic behavior of the test compounds was studied on C18 silicagel bonded 60 RP-180F254S TLC (20 × 20 cm) plates, purchased from Merck (Darmstadt, Germany). The test compounds’ solutions (1 mg/mL) were prepared by dissolving the samples in DMSO (Merck, Darmstadt, Germany). The plates were manually spotted with 3 µL aliquots of each solution at 10 mm from the base and 5 mm from the edge of the plate, leaving a 10 mm distance between successive spots, and developed by the ascending technique, without preconditioning. Chromatography was performed in a normal developing chamber at room temperature (~24 °C), the developing distance being of 9 cm. The solvent system used as mobile phase consisted of a water-i-propanol mixture, with a varying content of organic modifier (i-propanol—concentration ranged between 45% and 65% (v/v), with 5% vol. increments). Before the development, the chamber was saturated with the mobile phase for 15 min. After being developed, the dried plates were visually inspected under the UV light (λ = 254 nm), each spot was clearly marked and its distance was manually measured in order to calculate the Rf values. The spots of the compounds 3f, 10 and 11 were not visible in UV light, thus their Rf values could not be calculated, therefore they were excluded from this assay.
Based on the Rf values, one of the most common lipophilic estimator, meaning the isocratic retention factor RM was calculated using the Bate-Smith and Westall equations [40].
RP-TLC provides retention data in the form of Rf and the corresponding RM values (Equation (2)) that can be used to derive chromatographic descriptors for estimating lipophilicity: RM0, b and PCA. The most popular lipophilicity descriptor estimated by this method is RM and it is derived from the retention factor (Rf) according to the following formula: RM = log[(1/Rf) − 1] (2) where Rf is calculated on the basis of migration distance of a compound and the solvent front.
As RM value (related to the molecular lipophilicity) depends linearly on the concentration of the organic modifier in the mobile phase, the value is extrapolated to pure water as mobile phase. In order to increase the accuracy of the lipophilicity determination, the RM values extrapolated to zero organic modifier concentration (RM0) have been calculated from the linear correlation between the RM values and the concentration of the organic component of the mobile phase: RM = RM0 + bc (3) where RM0 is the lipophilicity estimation parameter, RM is the retention of the solute, b is the slope, and c is the concentration of the mobile phase organic modifier (i-propanol).
The intercept (RM0) in Equation (3) represents the extrapolated RM values at 0% organic modifier.
PCA was performed on the obtained retention parameters with the help of XL-STAT extension. […] PCA gave the coordinates (scores) of the studied compounds and also the loadings of the variables (solvents) on the principal components.

What is called MFC is the lowest tested concentration that kills the fungus rather than only halting it. The MIC is the lowest concentration found to suppress growth. As a reminder, the melting point is the temperature of the solid-liquid transition.

With `OC(Cn1cncn1)(Cn1cncn1)c1ccc(F)cc1F` [Fluconazole, reference compound], the MFC in data set [1] was 31.2 µg/mL (≈ 102 µM); in the data set on Candida krusei ATCC 6258 it was 31.2 µg/mL (≈ 102 µM); in data set [2] it was 31.2 µg/mL (≈ 102 µM); against four strains of Candida, 15.6 to 31.2 µg/mL (≈ 51 to 102 µM); in data set [3], 15.6 µg/mL (≈ 51 µM). Further, the MIC is 15.6 µg/mL (≈ 51 µM) in data set [1]; 15.6 µg/mL (≈ 51 µM) with Candida krusei ATCC 6258; 15.6 µg/mL (≈ 51 µM) in data set [2]; 7.81 to 15.6 µg/mL (≈ 25.5 to 51 µM) with four strains of Candida; 7.81 µg/mL (≈ 25.5 µM) in data set [3]. Moreover, the zone of inhibition at 1000 µg/mL in data set [4] was determined as 22 ± 0.5 mm.
Turning to `CNC1=NC(=O)CS1` [Compound 10, 2-(methylamino)thiazol-4(5H)-one], the MFC in data set [1] stood at 0.03 µg/mL (≈ 0.23 µM); in the data set with Candida krusei ATCC 6258 it was 0.015 µg/mL (≈ 0.115 µM); in data set [2] it was 0.03 µg/mL (≈ 0.23 µM); with four strains of Candida, 0.015 µg/mL (≈ 0.115 µM); in data set [3] it was 0.015 µg/mL (≈ 0.115 µM). In addition, the MIC (in data set [1]; in the data set with Candida krusei ATCC 6258; in data set [2]; in the data set on four strains of Candida; in data set [3]) was 0.015 µg/mL (≈ 0.115 µM) in each case. Also, the “fold more active than fluconazole” value with four strains of Candida is given as “over 500 fold”. Also, the zone of inhibition at 1000 µg/mL in data set [4] was determined as 22 ± 1 mm.
On to `CC(=O)N1CCN(c2ccc(OCC3COC(Cn4ccnc4)(c4ccc(Cl)cc4Cl)O3)cc2)CC1` (stereo not drawn) [Ketoconazole, reference compound], for which the MFC in data set [1] is 15.6 µg/mL (≈ 29.4 µM); with Candida krusei ATCC 6258 it was 15.6 µg/mL (≈ 29.4 µM); in data set [2], 15.6 µg/mL (≈ 29.4 µM); against four strains of Candida it was 7.81 to 15.6 µg/mL (≈ 14.7 to 29.4 µM); in data set [3] it was 7.81 µg/mL (≈ 14.7 µM). The MIC in data set [1] is 7.81 µg/mL (≈ 14.7 µM); with Candida krusei ATCC 6258 it was 7.81 µg/mL (≈ 14.7 µM); in data set [2], 7.81 µg/mL (≈ 14.7 µM); with four strains of Candida, 3.9 to 7.81 µg/mL (≈ 7.34 to 14.7 µM); in data set [3] it was 3.9 µg/mL (≈ 7.34 µM).
`O=C1N=C(Nc2cccc3ccccc23)SC1=Cc1ccc(Cl)cc1Cl` [Compound 9b, 5-(2,4-Dichlorobenzylidene)-2-(naphthalen-1-ylamino)thiazol-4(5H)-one] yielded a melting point of 185 °C. In addition, in data set [1], the MFC is 0.03 µg/mL (≈ 0.0751 µM) and the MIC was determined as 0.015 µg/mL (≈ 0.0376 µM). For the same compound, in the data set on Candida krusei ATCC 6258, the MFC was found to be 0.015 µg/mL (≈ 0.0376 µM) and the MIC was 0.015 µg/mL (≈ 0.0376 µM). Besides, in data set [2], the MFC is 0.03 µg/mL (≈ 0.0751 µM) and the MIC worked out at 0.015 µg/mL (≈ 0.0376 µM). For the same compound, in the data set on four strains of Candida, the “fold more active than fluconazole” value is on record as “over 500 fold”, the MFC came out at 0.015 µg/mL (≈ 0.0376 µM) and the MIC was determined as 0.015 µg/mL (≈ 0.0376 µM). Further, in data set [5], the RM0 was 2.9283, the b is given as −4.3675, the P1 is given as −2.876 and the P2 is given as 0.232. In addition, in data set [3], the MFC worked out at 0.015 µg/mL (≈ 0.0376 µM) and the MIC was found to be 0.015 µg/mL (≈ 0.0376 µM). For the same compound, the zone of inhibition at 1000 µg/mL in data set [4] is 18 ± 0.2 mm.
The compound `C=CCNC1=NC(=O)C(=Cc2coc3ccc(Cl)cc3c2=O)S1` [Compound 3e, 2-(Allylamino)-5-((6-chloro-4-oxo-4H-chromen-3-yl)methylene)thiazol-4(5H)-one] yielded a melting point of 299 to 301 °C. In addition, in data set [1], the MFC is 31.2 µg/mL (≈ 90.1 µM) and the MIC came out at 15.6 µg/mL (≈ 45 µM). Moreover, in the data set with Candida krusei ATCC 6258, the MFC came to 31.2 µg/mL (≈ 90.1 µM) and the MIC is 15.6 µg/mL (≈ 45 µM). Besides, in data set [2], the MFC came to 62.5 µg/mL (≈ 180 µM) and the MIC stood at 31.2 µg/mL (≈ 90.1 µM). Further, in data set [5], the RM0 was 2.2869, the b is recorded as −3.9184, the P1 is given as −0.349 and the P2 is recorded as −0.354. In data set [3], the MFC is 15.6 µg/mL (≈ 45 µM) and the minimal inhibitory concentration (MIC) came out at 7.81 µg/mL (≈ 22.5 µM). The zone of inhibition at 1000 µg/mL in data set [4] was determined as 20 ± 0.5 mm.
The compound `O=C1N=C(Nc2ccccc2)SC1=Cc1ccc([N+](=O)[O-])cc1` [Compound 6c, 5-(4-Nitrobenzylidene)-2-(phenylamino)thiazol-4(5H)-one] registered a melting point of 347 °C. For the same compound, in data set [1], the MFC was determined as 3.9 µg/mL (≈ 12 µM) and the MIC turned out to be 1.95 µg/mL (≈ 5.99 µM). Further, in the data set on Candida krusei ATCC 6258, the MFC amounted to 1.95 µg/mL (≈ 5.99 µM) and the MIC came out at 0.97 µg/mL (≈ 2.98 µM). For the same compound, in data set [2], the MFC was determined as 1.95 µg/mL (≈ 5.99 µM) and the MIC was 0.97 µg/mL (≈ 2.98 µM). In data set [5], the RM0 is listed as 1.7388, the b is −3.3696, the P1 was found to be 1.394 and the P2 is given as −0.304. In addition, in data set [3], the MFC stood at 1.95 µg/mL (≈ 5.99 µM) and the MIC was found to be 0.97 µg/mL (≈ 2.98 µM). In addition, the zone of inhibition at 1000 µg/mL in data set [4] was 20 ± 1 mm.
